Structures can show the parent of a compound that is named as a salt.
Assays:
[1] = target: T1, S1P1 (Homo sapiens, UniProt P21453); experiment: Receptor binding assay, [33P]sphingosine 1-phosphate, membranes, WGA SPA beads; details: membranes from CHO cells expressing S1P1; 25 pM [33P]S1P; 60 min RT
T1 construct: expressed in transfected cells; host or cells: CHO cells (membranes)
Method in brief: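 CHO-cell membranes expressing S1P1 incubated with 25 pM [33P]S1P in 50 mM HEPES pH 7.5, 5 mM MgCl2, 100 mM NaCl, 0.4% fatty acid-free BSA with WGA SPA beads for 60 min at RT. Bound radioactivity counted by scintillation proximity; specific binding defined using 1000-fold excess unlabeled S1P.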

[2] = target: T1, S1P1; experiment: 35S-GTPγS binding, S1P1 membranes; format: biochemical; details: membranes from CHO cells expressing S1P1; 60 min 30° C.
Method in brief: (§1)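 CHO-cell membranes expressing S1P1 or S1P3 (1-10 μg) incubated with compounds in 20 mM HEPES pH 7.4, 10 mM MgCl2, 140 mM NaCl, saponin, 0.2% BSA, 1.7 μM GDP and [35S]-GTPγS (20 μl of 1.5 nM added), 60 min at 30° C. Bound radioactivity expressed as % of S1P activation.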

[3] = target: T2, S1P3 (Homo sapiens, UniProt Q99500); experiment: 35S-GTPγS binding, S1P3 membranes; format: biochemical; details: membranes from CHO cells expressing S1P3; 60 min 30° C.
T2 construct: expressed in transfected cells; host or cells: CHO cells (membranes)
T2 sequence (Q99500 whole entry, species assumed): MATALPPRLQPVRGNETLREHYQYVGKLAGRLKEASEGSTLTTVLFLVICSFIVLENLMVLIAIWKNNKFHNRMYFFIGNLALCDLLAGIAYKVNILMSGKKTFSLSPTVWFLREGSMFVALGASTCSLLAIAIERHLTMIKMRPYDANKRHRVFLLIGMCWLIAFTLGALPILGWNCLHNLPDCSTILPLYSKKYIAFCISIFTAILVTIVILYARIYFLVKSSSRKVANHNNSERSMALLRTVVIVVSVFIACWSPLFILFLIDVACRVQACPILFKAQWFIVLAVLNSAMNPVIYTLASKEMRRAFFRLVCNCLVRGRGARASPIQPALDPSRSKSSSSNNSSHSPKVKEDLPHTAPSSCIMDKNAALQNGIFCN
Method in brief: as §1

T1 sequence (P21453 whole entry, species assumed): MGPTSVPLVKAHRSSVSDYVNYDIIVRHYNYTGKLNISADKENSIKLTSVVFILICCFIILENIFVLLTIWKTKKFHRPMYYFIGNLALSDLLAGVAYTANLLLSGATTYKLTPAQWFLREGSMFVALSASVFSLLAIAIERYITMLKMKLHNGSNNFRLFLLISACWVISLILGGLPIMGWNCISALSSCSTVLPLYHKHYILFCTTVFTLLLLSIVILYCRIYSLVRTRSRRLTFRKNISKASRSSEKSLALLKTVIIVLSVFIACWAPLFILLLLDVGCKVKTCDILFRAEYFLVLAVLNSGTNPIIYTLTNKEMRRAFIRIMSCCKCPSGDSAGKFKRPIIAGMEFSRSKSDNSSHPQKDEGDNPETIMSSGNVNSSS

| Ki [1] | EC50 [2] | EC50 [3] | SMILES |
| --- | --- | --- | --- |
| 0.04 µM | 0.129 µM | 17 µM | Cc1ccccc1-c1ccc(-c2nc(-c3ccc(OCC(=O)O)c(F)c3)no2)cc1C [Example 48, {4-[5-(2,2′-dimethylbiphenyl-4-yl)-1,2,4-oxadiazol-3-yl]-2-fluorophenoxy}acetic acid] |
| 1.5 µM | 4.72 µM | > 30 µM | O=C(O)c1ccc(-c2noc(-c3ccc(-c4ccccc4Cl)cc3)n2)cc1F [Example 2, 4-[5-(2′-chlorobiphenyl-4-yl)-1,2,4-oxadiazol-3-yl]-2-fluorobenzoic acid] |
| 0.11 µM | 0.347 µM | > 30 µM | CC1CCCCN1c1ccc(-c2nc(-c3ccc(C(=O)O)c(F)c3)no2)cc1C(F)(F)F (stereo not drawn) [Example 19, 2-fluoro-4-{5-[4-(2-methylpiperidin-1-yl)-3-(trifluoromethyl)phenyl]-1,2,4-oxadiazol-3-yl}benzoic acid] |
| 0.024 µM | 0.092 µM | 0.699 µM | Cc1ccccc1-c1ccc(-c2nc(-c3ccc(C(=O)O)c(F)c3)no2)cc1CN(C)C [Example 62, 4-(5-{2-[(dimethylamino)methyl]-2′-methylbiphenyl-4-yl}-1,2,4-oxadiazol-3-yl)-2-fluorobenzoic acid, Hydrochloride salt] |
| 0.002 µM | 0.0015 µM | 0.754 µM | CCc1ccccc1-c1ccc(-c2nc(-c3ccc(F)c(CN(C)CC(=O)O)c3)no2)cc1COC [Example 147, N-(5-{5-[2′-ethyl-2-(methoxymethyl)biphenyl-4-yl]-1,2,4-oxadiazol-3-yl}-2-fluorobenzyl)-N-methylglycine, Hydrochloride salt] |
| 0.003 µM | 0.008 µM | 0.274 µM | COCc1cc(-c2nc(-c3ccc(C(N)=O)c(F)c3)no2)ccc1-c1ccccc1C [Example 179, 2-fluoro-4-{5-[2-(methoxymethyl)-2′-methylbiphenyl-4-yl]-1,2,4-oxadiazol-3-yl}benzamide] |
| 0.011 µM | 0.014 µM | 0.219 µM | COCc1cc(-c2nc(-c3ccc(OCC(=O)O)c(F)c3)no2)ccc1-c1ccccc1C [Example 166, (2-fluoro-{5-[2-(methoxymethyl)-2′-methylbiphenyl-4-yl]-1,2,4-oxadiazol-3-yl}phenoxy)acetic acid] |
| 0.0034 µM | 0.017 µM | 1.42 µM | COCc1cc(-c2nc(-c3ccc(C(=O)NCCNC(C)=O)c(F)c3)no2)ccc1-c1ccccc1C [Example 174, N-[2-(acetylamino)ethyl]-2-fluoro-4-{5-[2-(methoxymethyl)-2′-methylbiphenyl-4-yl]-1,2,4-oxadiazol-3-yl}benzamide] |
| 0.001 µM | 0.0048 µM | 0.141 µM | COCc1cc(-c2nc(-c3ccc(C(N)=O)cc3)no2)ccc1-c1ccccc1C [Example 178, 4-{5-[2-(methoxymethyl)-2′-methylbiphenyl-4-yl]-1,2,4-oxadiazol-3-yl}benzamide] |
| 0.04 µM | 0.136 µM | > 30 µM | Cc1cc(-c2nc(-c3ccc(C(=O)O)c(F)c3)no2)ccc1-c1cscc1C [Example 9, 2-fluoro-4-{5-[3-methyl-4-(4-methyl-3-thienyl)phenyl}-1,2,4-oxadiazol-3-yl]benzoic acid] |
| 0.039 µM | 0.019 µM | > 20 µM | Cc1ccccc1-c1ccc(-c2nc(-c3ccc(C(N)=O)c(F)c3)no2)cc1C [Example 171, 4-[5-(2,2′-dimethylbiphenyl-4-yl)-1,2,4-oxadiazol-3-yl]-2-fluorobenzamide] |
| 0.09 µM | 0.197 µM | 14.9 µM | Cc1cscc1-c1ccc(-c2nc(-c3ccc(C(=O)O)c(F)c3)no2)cc1C(F)(F)F [Example 23, 2-fluoro-4-{5-[4-(4-methyl-3-thienyl)-3-(trifluoromethyl)phenyl]-1,2,4-oxadiazol-3-yl}benzoic acid] |
| 0.004 µM | 0.0373 µM | 1.21 µM | COCc1cc(-c2nc(-c3ccc(C(=O)NC(C)CC(=O)O)c(F)c3)no2)ccc1-c1ccccc1C (stereo not drawn) [Example 123, 3-[(2-fluoro-4-{5-[2-(methoxymethyl)-2′-methylbiphenyl-4-yl]-1,2,4-oxadiazol-3-yl}benzoyl)amino]butanoic acid] |
| 0.002 µM | 0.0073 µM | 0.502 µM | COCc1cc(-c2nc(-c3ccc(C(=O)NCCC(=O)O)c(F)c3)no2)ccc1-c1ccccc1C [Example 119, N-(2-fluoro-4-{5-[2-(methoxymethyl)-2′-methylbiphenyl-4-yl]-1,2,4-oxadiazol-3-yl}benzoyl)-beta-alanine] |
| 0.002 µM | 0.015 µM | 3.03 µM | CCc1ccccc1-c1ccc(-c2nc(-c3ccc(C(=O)O)c(F)c3)no2)cc1COC [Example 78, 4-{5-[2′-ethyl-2-(methoxymethyl)biphenyl-4-yl]-1,2,4-oxadiazol-3-yl}-2-fluorobenzoic acid] |
| 0.001 µM | 0.0033 µM | 4.49 µM | COCc1cc(-c2nc(-c3cccc(C(=O)NCCNC(C)=O)c3)no2)ccc1-c1ccccc1C [Example 184, N-[2-(acetylamino)ethyl]-3-{5-[2-(methoxymethyl)-2′-methylbiphenyl-4-yl]-1,2,4-oxadiazol-3-yl}benzamide] |
| 0.13 µM | 0.341 µM | > 30 µM | COc1cc(-c2nc(-c3ccc(C(=O)O)c(F)c3)no2)ccc1-c1ccccc1C [Example 13, 2-fluoro-4-[5-(2-methoxy-2′-methylbiphenyl-4-yl)-1,2,4-oxadiazol-3-yl]benzoic acid] |
| 0.026 µM | 0.034 µM | 2.63 µM | COCc1cc(-c2nc(-c3ccc(C(=O)O)c(Cl)c3)no2)ccc1-c1ccccc1C [Example 69, 2-chloro-4-{5-[2-(methoxymethyl)-2′-methylbiphenyl-4-yl]-1,2,4-oxadiazol-3-yl}benzoic acid] |
| 0.524 µM | 0.417 µM | > 20 µM | Cc1ccccc1-c1ccc(-c2nc(-c3ccc(C(=O)O)c(F)c3)no2)cc1C(F)(F)F [Example 22, 2-fluoro-4-{5-[2′-methyl-2-(trifluoromethyl)biphenyl-4-yl]-1,2,4-oxadiazol-3-yl}benzoic acid] |
| 0.0008 µM | 0.0006 µM | 0.281 µM | CCc1ccccc1-c1ccc(-c2nc(-c3cccc(CN(C)CC(=O)O)c3)no2)cc1COC [Example 143, N-(3-{5-[2′-ethyl-2-(methoxymethyl)biphenyl-4-yl]-1,2,4-oxadiazol-3-yl}benzyl)-N-methylglycine, hydrochloride salt] |
| 0.037 µM | 0.063 µM | 1.25 µM | COCc1cc(-c2nc(-c3cccc(C(=O)O)c3)no2)ccc1-c1ccccc1C [Example 92, 3-{5-[2-(methoxymethyl)-2′-methylbiphenyl-4-yl]-1,2,4-oxadiazol-3-yl}benzoic acid] |
| 0.069 µM | 0.057 µM | 1.41 µM | CC1CCCCN1c1ccc(-c2nc(-c3ccc(C(=O)O)c(Cl)c3)no2)cc1NS(C)(=O)=O (stereo not drawn) [Example 70, 2-chloro-4-(5-{4-(2-methylpiperidin-1-yl)-3-[(methylsulfonyl)amino]phenyl}-1,2,4-oxadiazol-3-yl)benzoic acid] |
| 0.002 µM | 0.0024 µM | 5.6 µM | COCc1cc(-c2nc(-c3cccc(C(=O)NCCC#N)c3)no2)ccc1-c1ccccc1C [Example 183, N-(2-cyanoethyl)-3-{5-[2-(methoxymethyl)-2′-methylbiphenyl-4-yl]-1,2,4-oxadiazol-3-yl}benzamide] |

Source: patent publication US8202865B2, “Oxadiazole derivatives” (Merck Serono SA, priority 2007, dated 2012)
